# Laboratory results from EP0726263A2, “Herbicidal (1,3,4)oxadiazoles and thiadiazoles” (American Cyanamid Company, priority 1995, dated 1996).
# How the values were obtained:
# Type in all cases: in vivo
# Abutilon theophrasti [1] = assay: Herbicidal activity, preemergence test; settings: pre; sprayed onto soil, 800 g of active material per hectare; evaluated 3 weeks after treatment
# Outline: (§1)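 Acetone/TRITON X-155 formulation diluted in water, sprayed onto horticultural loam soon after sowing at 800 g active material per hectare in 900 litres per hectare. Visual 0-9 rating of stand, vigor, malformation, size and chlorosis versus untreated sown soil, scored 3 weeks after treatment.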
# Alopecurus myosuroides [2] = assay: Herbicidal activity, preemergence test; settings: pre; sprayed onto soil, 800 g of active material per hectare; evaluated 3 weeks after treatment
# Outline: as §1
# Amaranthus retroflexus [3] = assay: Herbicidal activity, preemergence test; settings: pre; sprayed onto soil, 800 g of active material per hectare; evaluated 3 weeks after treatment
# Outline: as §1
# Ambrosia artemisifolia [4] = assay: Herbicidal activity, preemergence test; settings: pre; sprayed onto soil, 800 g of active material per hectare; evaluated 3 weeks after treatment
# Outline: as §1
# Chenopodium album [5] = assay: Herbicidal activity, preemergence test; settings: pre; sprayed onto soil, 800 g of active material per hectare; evaluated 3 weeks after treatment
# Outline: as §1
# Galium aparine [6] = assay: Herbicidal activity, preemergence test; settings: pre; sprayed onto soil, 800 g of active material per hectare; evaluated 3 weeks after treatment
# Outline: as §1
# Glycine max [7] = assay: Herbicidal activity, preemergence test; settings: pre; sprayed onto soil, 800 g of active material per hectare; evaluated 3 weeks after treatment
# Outline: as §1
# Gossypium hirsutum [8] = assay: Herbicidal activity, preemergence test; settings: pre; sprayed onto soil, 800 g of active material per hectare; evaluated 3 weeks after treatment
# Outline: as §1
# Hordeum vulgare [9] = assay: Herbicidal activity, preemergence test; settings: pre; sprayed onto soil, 800 g of active material per hectare; evaluated 3 weeks after treatment
# Outline: as §1
# Ipomoea hederacea [10] = assay: Herbicidal activity, preemergence test; settings: pre; sprayed onto soil, 800 g of active material per hectare; evaluated 3 weeks after treatment
# Outline: as §1
# Lamium purpureum [11] = assay: Herbicidal activity, preemergence test; settings: pre; sprayed onto soil, 800 g of active material per hectare; evaluated 3 weeks after treatment
# Outline: as §1
# Matricaria inodora [12] = assay: Herbicidal activity, preemergence test; settings: pre; sprayed onto soil, 800 g of active material per hectare; evaluated 3 weeks after treatment
# Outline: as §1
# Papaver rhoeas [13] = assay: Herbicidal activity, preemergence test; settings: pre; sprayed onto soil, 800 g of active material per hectare; evaluated 3 weeks after treatment
# Outline: as §1
# Setaria viridis [14] = assay: Herbicidal activity, preemergence test; settings: pre; sprayed onto soil, 800 g of active material per hectare; evaluated 3 weeks after treatment
# Outline: as §1
# Stellaria media [15] = assay: Herbicidal activity, preemergence test; settings: pre; sprayed onto soil, 800 g of active material per hectare; evaluated 3 weeks after treatment
# Outline: as §1
# Triticum aestivum [16] = assay: Herbicidal activity, preemergence test; settings: pre; sprayed onto soil, 800 g of active material per hectare; evaluated 3 weeks after treatment
# Outline: as §1
# Veronica persica [17] = assay: Herbicidal activity, preemergence test; settings: pre; sprayed onto soil, 800 g of active material per hectare; evaluated 3 weeks after treatment
# Outline: as §1
# Zea mays [18] = assay: Herbicidal activity, preemergence test; settings: pre; sprayed onto soil, 800 g of active material per hectare; evaluated 3 weeks after treatment
# Outline: as §1
# Abutilon theophrasti [19] = assay: Herbicidal activity, postemergence test; settings: post; sprayed onto seedling plants, 800 g of active material per hectare; evaluated 2 weeks after treatment
# Outline: (§2)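 Spray dose 800 g a.i./ha in 900 L/ha; acetone stock with 0.4% Triton X-155, water-diluted. Pre: sown loam soil, read at 3 wk. Post: seedling plants, read at 2 wk. Visual 0-9 rating vs untreated.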
# Alopecurus myosuroides [20] = assay: Herbicidal activity, postemergence test; settings: post; sprayed onto seedling plants, 800 g of active material per hectare; evaluated 2 weeks after treatment
# Outline: as §2
# Amaranthus retroflexus [21] = assay: Herbicidal activity, postemergence test; settings: post; sprayed onto seedling plants, 800 g of active material per hectare; evaluated 2 weeks after treatment
# Outline: as §2
# Ambrosia artemisifolia [22] = assay: Herbicidal activity, postemergence test; settings: post; sprayed onto seedling plants, 800 g of active material per hectare; evaluated 2 weeks after treatment
# Outline: as §2
# Chenopodium album [23] = assay: Herbicidal activity, postemergence test; settings: post; sprayed onto seedling plants, 800 g of active material per hectare; evaluated 2 weeks after treatment
# Outline: as §2
# Galium aparine [24] = assay: Herbicidal activity, postemergence test; settings: post; sprayed onto seedling plants, 800 g of active material per hectare; evaluated 2 weeks after treatment
# Outline: as §2
# Glycine max [25] = assay: Herbicidal activity, postemergence test; settings: post; sprayed onto seedling plants, 800 g of active material per hectare; evaluated 2 weeks after treatment
# Outline: as §2
# Gossypium hirsutum [26] = assay: Herbicidal activity, postemergence test; settings: post; sprayed onto seedling plants, 800 g of active material per hectare; evaluated 2 weeks after treatment
# Outline: as §2
# Hordeum vulgare [27] = assay: Herbicidal activity, postemergence test; settings: post; sprayed onto seedling plants, 800 g of active material per hectare; evaluated 2 weeks after treatment
# Outline: as §2
# Ipomoea hederacea [28] = assay: Herbicidal activity, postemergence test; settings: post; sprayed onto seedling plants, 800 g of active material per hectare; evaluated 2 weeks after treatment
# Outline: as §2
# Lamium purpureum [29] = assay: Herbicidal activity, postemergence test; settings: post; sprayed onto seedling plants, 800 g of active material per hectare; evaluated 2 weeks after treatment
# Outline: as §2
# Matricaria inodora [30] = assay: Herbicidal activity, postemergence test; settings: post; sprayed onto seedling plants, 800 g of active material per hectare; evaluated 2 weeks after treatment
# Outline: as §2
# Papaver rhoeas [31] = assay: Herbicidal activity, postemergence test; settings: post; sprayed onto seedling plants, 800 g of active material per hectare; evaluated 2 weeks after treatment
# Outline: as §2
# Setaria viridis [32] = assay: Herbicidal activity, postemergence test; settings: post; sprayed onto seedling plants, 800 g of active material per hectare; evaluated 2 weeks after treatment
# Outline: as §2
# Stellaria media [33] = assay: Herbicidal activity, postemergence test; settings: post; sprayed onto seedling plants, 800 g of active material per hectare; evaluated 2 weeks after treatment
# Outline: as §2
# Triticum aestivum [34] = assay: Herbicidal activity, postemergence test; settings: post; sprayed onto seedling plants, 800 g of active material per hectare; evaluated 2 weeks after treatment
# Outline: as §2
# Veronica persica [35] = assay: Herbicidal activity, postemergence test; settings: post; sprayed onto seedling plants, 800 g of active material per hectare; evaluated 2 weeks after treatment
# Outline: as §2
# Zea mays [36] = assay: Herbicidal activity, postemergence test; settings: post; sprayed onto seedling plants, 800 g of active material per hectare; evaluated 2 weeks after treatment
# Outline: as §2
SMILES,ABUTH control rating (0-9) (Abutilon theophrasti [1]),ALOMY control rating (0-9) (Alopecurus myosuroides [2]),AMARE control rating (0-9) (Amaranthus retroflexus [3]),AMBEL control rating (0-9) (Ambrosia artemisifolia [4]),CHEAL control rating (0-9) (Chenopodium album [5]),GALAP control rating (0-9) (Galium aparine [6]),GLXMA control rating (0-9) (Glycine max [7]),GOSHI control rating (0-9) (Gossypium hirsutum [8]),HORVW control rating (0-9) (Hordeum vulgare [9]),IPOHE control rating (0-9) (Ipomoea hederacea [10]),LAMPU control rating (0-9) (Lamium purpureum [11]),MATIN control rating (0-9) (Matricaria inodora [12]),PAPRH control rating (0-9) (Papaver rhoeas [13]),SETVI control rating (0-9) (Setaria viridis [14]),STEME control rating (0-9) (Stellaria media [15]),TRZAW control rating (0-9) (Triticum aestivum [16]),VERPE control rating (0-9) (Veronica persica [17]),ZEAMX control rating (0-9) (Zea mays [18]),ABUTH control rating (0-9) (Abutilon theophrasti [19]),ALOMY control rating (0-9) (Alopecurus myosuroides [20]),other results
C[C@H](NC(=O)c1nnc(-c2ccc(Cl)cc2Cl)o1)c1ccccc1 [Example 26],0 (no effect),0 (no effect),3 (moderate effect),0 (no effect),0 (no effect),0 (no effect),0 (no effect),0 (no effect),0 (no effect),0 (no effect),0 (no effect),0 (no effect),9 (complete kill),0 (no effect),0 (no effect),0 (no effect),7 (good herbicidal effect),0 (no effect),1 (trace effect),0 (no effect),AMARE control rating (0-9) (Amaranthus retroflexus [21]): 8 (approaching complete kill); AMBEL control rating (0-9) (Ambrosia artemisifolia [22]): 0 (no effect); CHEAL control rating (0-9) (Chenopodium album [23]): 5 (definite injury); GALAP control rating (0-9) (Galium aparine [24]): 0 (no effect); GLXMA control rating (0-9) (Glycine max [25]): 2 (slight effect); GOSHI control rating (0-9) (Gossypium hirsutum [26]): 3 (moderate effect); HORVW control rating (0-9) (Hordeum vulgare [27]): 0 (no effect); IPOHE control rating (0-9) (Ipomoea hederacea [28]): 0 (no effect); LAMPU control rating (0-9) (Lamium purpureum [29]): 7 (good herbicidal effect); MATIN control rating (0-9) (Matricaria inodora [30]): 2 (slight effect); PAPRH control rating (0-9) (Papaver rhoeas [31]): 3 (moderate effect); SETVI control rating (0-9) (Setaria viridis [32]): 4 (injury); STEME control rating (0-9) (Stellaria media [33]): 6 (herbicidal effect); TRZAW control rating (0-9) (Triticum aestivum [34]): 0 (no effect); VERPE control rating (0-9) (Veronica persica [35]): 3 (moderate effect); ZEAMX control rating (0-9) (Zea mays [36]): 0 (no effect)
C[C@H](NC(=O)c1nnc(-c2ccc(Cl)c(Cl)c2)o1)c1ccccc1 [Example 27],0 (no effect),0 (no effect),0 (no effect),0 (no effect),0 (no effect),0 (no effect),0 (no effect),0 (no effect),0 (no effect),0 (no effect),0 (no effect),0 (no effect),3 (moderate effect),0 (no effect),0 (no effect),0 (no effect),3 (moderate effect),0 (no effect),0 (no effect),0 (no effect),AMARE control rating (0-9) (Amaranthus retroflexus [21]): 5 (definite injury); AMBEL control rating (0-9) (Ambrosia artemisifolia [22]): 0 (no effect); CHEAL control rating (0-9) (Chenopodium album [23]): 6 (herbicidal effect); GALAP control rating (0-9) (Galium aparine [24]): 0 (no effect); GLXMA control rating (0-9) (Glycine max [25]): 2 (slight effect); GOSHI control rating (0-9) (Gossypium hirsutum [26]): 2 (slight effect); HORVW control rating (0-9) (Hordeum vulgare [27]): 0 (no effect); IPOHE control rating (0-9) (Ipomoea hederacea [28]): 0 (no effect); LAMPU control rating (0-9) (Lamium purpureum [29]): 4 (injury); MATIN control rating (0-9) (Matricaria inodora [30]): 0 (no effect); PAPRH control rating (0-9) (Papaver rhoeas [31]): 2 (slight effect); SETVI control rating (0-9) (Setaria viridis [32]): 0 (no effect); STEME control rating (0-9) (Stellaria media [33]): 0 (no effect); TRZAW control rating (0-9) (Triticum aestivum [34]): 0 (no effect); VERPE control rating (0-9) (Veronica persica [35]): 0 (no effect); ZEAMX control rating (0-9) (Zea mays [36]): 0 (no effect)
